We go through 14 compounds from patent US20260308152A1, “METHODS OF MAKING 2-AMINO-1-(3-HYDROXY-2,6-DIMETHYLPHENYL)-5,6-DIMETHYL-1H-PYRROLO-[2,3-B]PYRIDINE-3-CARBOXAMIDE, A MYT1 INHIBITOR” (Repare Therapeutics Inc., priority 2022, published 2026).

≈ marks a conversion by molar mass, not a printed value. Marks after values point to notes of the source that are not given here.

Common to all, as to assay type: physicochemical
The nature of data set [1]: Chiral acid salt screen: approximate solubility of starting material in solvents. The conditions noted are these: ambient temperature, 3 days. The protocol:
INT 1f salts (50-60 mg) were weighed into 4 ml vials. Solvent (~0.2-1.0 mL) was added to each vial, and the vials were stirred at ambient temperature for 3 days. Additional solvent was added to vials with thick slurries, and additional salts were added to vials with clear solutions.
In this example, the resolution of INT 1g and Compound 1 via chiral salts is summarized.

Data set [2] is described as follows: Solubility of INT 1b in organic solvents. The conditions noted are these: most organic solvents (FIG. 1). The source says:
FIG. 1 is a graph illustrating the solubility of INT 1b in organic solvents, including heptane, toluene, xylenes, isopropyl acetate (IPAc), ethyl acetate (EtOAc), methyl ethyl ketone (MEK), methyl t-butyl ether (MTBE), dichloromethane (DCM), methanol (MeOH), ethanol (EtOH), isopropanol (iPrOH), acetonitrile (MeCN), water, 5 M H2SO4, and 1 M H2SO4.

Data set [3] is described as follows: Solubility in anisole at various temperatures. The source says:
The solubility of racemic INT 1f (recrystallized from anisole) in anisole at various temperatures was investigated (Table 28).
The solubility of (S)-INT 1f/(R)-CSA salt in anisole at various temperatures was also investigated

Data set [4] is described as follows: Aromatic solvent screen: solubility of INT 1f/(R)-CSA salt. The text has this: Following the encouraging result employing anisole as the solvent and switching to (R)-CSA to afford the desired diastereomer, the following common aromatic solvents were screened: 1,3-dimethoxybenzene;
2-, 3-, and 4-methyanisoles; o, m, and p-xylenes; and α,α,α-trifluorotoluene (Table 18). […] In addition to anisole, 4-methylanisole and 1,3-dimethoxybenzene also afforded enantioenriched crystalline solids with enantiomeric ratios (e.r.) of 90:10 and 87:13, respectively. However, the highest e.r. was obtained with anisole (92:8).

As to `Cc1cc2c(C(N)=O)c(N)n(-c3c(C)ccc(O)c3C)c2nc1C` [Compound 1/Acid d], the “Approximate Solubility of Starting Material” value (shortened to “Approximate Solubility”) in data set [1] (Anisole), in data set [1] (DCM) and in data set [1] (EtOH:Heptane (1:1)) was “Partially soluble” in each case.
Turning to `COc1ccc(C)c(-n2c(N)c(C#N)c3cc(C)c(C)nc32)c1C.O=P1(O)Oc2ccc3ccccc3c2-c2c(ccc3ccccc23)O1`, the “Approximate Solubility” value in data set [1] (1,4-Dioxane) is recorded as “Highly soluble”; in data set [1] (Acetone:water (9:1)), “Very soluble”; in data set [1] (Anisole), “Very soluble”; in data set [1] (DCM) it was “Highly soluble”; in data set [1] (EtOAc) it was “Soluble”; in data set [1] (EtOH:Heptane (1:1)), “Soluble”. In addition, the “Approximate Solubility” value in data set [1] (EtOH) was “Very soluble”; in data set [1] (MeCN) it was “Soluble”; in data set [1] (THF) it was “Highly soluble”; in data set [1] (Toluene), “Very soluble”.
With `Cc1cc(Br)c(=O)[nH]c1C` [INT 1b], the “solubility in most organic solvents” value in data set [2] is on record as “poor solubility”.
Take `Cc1cc2c(C(N)=O)c(N)n(-c3c(C)ccc(O)c3C)c2nc1C` [Compound 1/Acid h]: the “Approximate Solubility” value in data set [1] (Acetone:water (9:1)) is “Soluble”; in data set [1] (DCM) it was “Partially soluble”; in data set [1] (EtOH), “Soluble”.
Consider `CC1(C)[C@H]2CC[C@]1(CS(=O)(=O)O)C(=O)C2.COc1ccc(C)c(-n2c(N)c(C#N)c3cc(C)c(C)nc32)c1C` [(S)-INT 1f/(R)-CSA, (S)-2-Ammonium-1-(3-methoxy-2,6-dimethylphenyl)-5,6-dimethyl-1H-pyrrolo[2,3-b]-pyridine-3-carbonitrile/(R)-CSA], for which the Solubility in anisole is reported as 2.39 mg/mL in data set [3] (salt, 21° C.); 3.78* mg/mL in data set [3] (salt, 30° C.); 3.37 mg/mL in data set [3] (salt, 40° C.); 4.20 mg/mL in data set [3] (salt, 50° C.); 7.29 mg/mL in data set [3] (salt, 60° C.).
Take `CC1(C)C2CCC1(CS(=O)(=O)O)C(=O)C2Br.COc1ccc(C)c(-n2c(N)c(C#N)c3cc(C)c(C)nc32)c1C.O`: the “Approximate Solubility” value in data set [1] (1,4-Dioxane) is recorded as “Highly soluble”; in data set [1] (Acetone:water (9:1)), “Highly soluble”; in data set [1] (Anisole) it was “Soluble”; in data set [1] (DCM) it was “Highly soluble”; in data set [1] (EtOAc), “Very soluble”; in data set [1] (EtOH:Heptane (1:1)) it was “Highly soluble”. The “Approximate Solubility” value in data set [1] (EtOH) is “Very soluble”; in data set [1] (MeCN), “Highly soluble”; in data set [1] (THF), “Highly soluble”; in data set [1] (Toluene) it was “Soluble”.
For the compound `Cc1cc2c(C(N)=O)c(N)n(-c3c(C)ccc(O)c3C)c2nc1C` [Compound 1/Acid f], the “Approximate Solubility” value in data set [1] (Acetone:water (9:1)) is listed as “Soluble”; in data set [1] (Anisole), “Soluble”; in data set [1] (DCM), “Partially soluble”; in data set [1] (EtOH:Heptane (1:1)), “Soluble”; in data set [1] (EtOH), “Partially soluble”; in data set [1] (MeCN) it was “Partially soluble”. Besides, the “Approximate Solubility” value in data set [1] (THF) is “Soluble”.
Take `CC(C)c1cc(C(C)C)c(-c2cc3ccccc3c3c2OP(=O)(O)Oc2c(-c4c(C(C)C)cc(C(C)C)cc4C(C)C)cc4ccccc4c2-3)c(C(C)C)c1.COc1ccc(C)c(-n2c(N)c(C#N)c3cc(C)c(C)nc32)c1C` [INT 1f/(S)-TRIP]: the “Approximate Solubility” value in data set [1] (1,4-Dioxane) is “Highly soluble”; in data set [1] (Acetone:water (9:1)), “Highly soluble”; in data set [1] (Anisole) it was “Very soluble”; in data set [1] (DCM), “Highly soluble”; in data set [1] (EtOAc), “Very soluble”; in data set [1] (EtOH:Heptane (1:1)), “Soluble”. Besides, the “Approximate Solubility” value was “Soluble” in data set [1] (EtOH), “Soluble” in data set [1] (MeCN), “Highly soluble” in data set [1] (THF) and “Highly soluble” in data set [1] (Toluene).
Turning to `CC1(C)C2CC[C@@]1(CS(=O)(=O)O)C(=O)C2.COc1ccc(C)c(-n2c(N)c(C#N)c3cc(C)c(C)nc32)c1C` [INT 1f/(S)-CSA], the “Approximate Solubility” value in data set [1] (1,4-Dioxane) is recorded as “Soluble”; in data set [1] (Acetone:water (9:1)), “Highly soluble”; in data set [1] (Anisole), “Very soluble”; in data set [1] (DCM) it was “Very soluble”; in data set [1] (EtOAc), “Soluble”; in data set [1] (EtOH:Heptane (1:1)) it was “Soluble”. The “Approximate Solubility” value was “Very soluble” in data set [1] (EtOH), “Highly soluble” in data set [1] (MeCN), “Very soluble” in data set [1] (THF) and “Highly soluble” in data set [1] (Toluene).
For `CC1(C)C2CC[C@]1(CS(=O)(=O)O)C(=O)C2.COc1ccc(C)c(-n2c(N)c(C#N)c3cc(C)c(C)nc32)c1C` [INT 1f/(R)-CSA], the solubility result in data set [4] (1,3-dimethoxybenzene and anisole) was “high solubility”; in data set [4] (2-, 3-, 4-methyanisole with heating) it was “good solubility”; in data set [4] (other aromatic solvents (xylenes, α,α,α-trifluorotoluene)), “poor solubility”.
Take `COc1ccc(C)c(-n2c(N)c(C#N)c3cc(C)c(C)nc32)c1C` (racemic) [INT 1f, 2-Amino-1-(3-methoxy-2,6-dimethylphenyl)-5,6-dimethyl-1H-pyrrolo[2,3-b]-pyridine-3-carbonitrile]: the Solubility in anisole in data set [3] (racemic, crystal form recrystallized from anisole, 25° C.) amounted to 14.01 mg/mL (≈ 43.7 mM); in data set [3] (racemic, crystal form recrystallized from anisole, 30° C.), 17.72 mg/mL (≈ 55.3 mM); in data set [3] (racemic, crystal form recrystallized from anisole, 40° C.), 21.26 mg/mL (≈ 66.4 mM); in data set [3] (racemic, crystal form recrystallized from anisole, 50° C.), 25.99 mg/mL (≈ 81.1 mM); in data set [3] (racemic, crystal form recrystallized from anisole, 60° C.) it was 46.5 mg/mL (≈ 145 mM).
For the compound `COc1ccc(C)c(-n2c(N)c(C#N)c3cc(C)c(C)nc32)c1C.O=P1(O)Oc2c(-c3c(C4CCCCC4)cc(C4CCCCC4)cc3C3CCCCC3)cc3ccccc3c2-c2c(c(-c3c(C4CCCCC4)cc(C4CCCCC4)cc3C3CCCCC3)cc3ccccc23)O1` [INT 1f/(S)-TCYP], the “Approximate Solubility” value in data set [1] (1,4-Dioxane) was “Soluble”; in data set [1] (Acetone:water (9:1)), “Soluble”; in data set [1] (Anisole) it was “Very soluble”; in data set [1] (DCM), “Highly soluble”; in data set [1] (EtOAc), “Highly soluble”; in data set [1] (EtOH:Heptane (1:1)) it was “Soluble”. Besides, the “Approximate Solubility” value in data set [1] (EtOH) is on record as “Very soluble”; in data set [1] (MeCN) it was “Very soluble”; in data set [1] (THF), “Highly soluble”; in data set [1] (Toluene) it was “Very soluble”.
Regarding `COc1ccc(C)c(-n2c(N)c(C#N)c3cc(C)c(C)nc32)c1C.Cc1ccc(C(=O)O[C@H](C(=O)O)[C@H](OC(=O)c2ccc(C)cc2)C(=O)O)cc1`, the “Approximate Solubility” value in data set [1] (1,4-Dioxane) was “Very soluble”; in data set [1] (Acetone:water (9:1)) it was “Soluble”; in data set [1] (Anisole), “Soluble”; in data set [1] (DCM) it was “Very soluble”; in data set [1] (EtOAc), “Soluble”; in data set [1] (EtOH:Heptane (1:1)) it was “Soluble”. For the same compound, the “Approximate Solubility” value in data set [1] (EtOH) is listed as “Soluble”; in data set [1] (MeCN), “Soluble”; in data set [1] (THF), “Very soluble”; in data set [1] (Toluene) it was “Soluble”.
Turning to `COc1ccc(C)c(-n2c(N)c(C#N)c3cc(C)c(C)nc32)c1C.O=C(O[C@H](C(=O)O)[C@H](OC(=O)c1ccccc1)C(=O)O)c1ccccc1` [INT 1f/(+)-2,3-Dibenzoyl-D-tartaric Acid], the “Approximate Solubility” value in data set [1] (1,4-Dioxane) is given as “Highly soluble”; in data set [1] (Acetone:water (9:1)), “Soluble”; in data set [1] (Anisole), “Soluble”; in data set [1] (DCM) it was “Highly soluble”; in data set [1] (EtOAc), “Soluble”; in data set [1] (EtOH:Heptane (1:1)), “Soluble”. Further, the “Approximate Solubility” value was “Soluble” in data set [1] (EtOH), “Soluble” in data set [1] (MeCN), “Highly soluble” in data set [1] (THF) and “Soluble” in data set [1] (Toluene).
